Key:
[1] = 37° C. (310K) magnetic field-magnetization curve using MPMS7 (Quantum Design); format: physicochemical; details: for magnetic field at which magnetization is greater in comparison to the Fe-salen / magnetic properties from magnetic field-magnetization curve: 37° C. (310K); for magnetization compared among Fe-, Mn-, Cr-, Co-salen: magnetic field 10000 Oe (1 T) or more
Experimental: As a result of measuring the 37° C.
The summary of the results of the 37° C. (310K) magnetic field-magnetization curve of the Fe-salen complex, the Mn-salen complex, the Cr-salen complex, and the Co-salen complex is shown in FIG. 4.
In comparison to the Fe-salen, the Co-salen yields greater magnetization at a magnetic field of 10000 Oe (1 T (tesla)) or more. In comparison to the Fe-salen, the Mn-salen yields greater magnetization at a magnetic field of 30000 Oe (3 T (tesla)) or more.
Nevertheless, if the magnetic field is 10000 Oe (1 T (tesla)) or more, the magnetization of the Co-salen and Mn-salen complex is the greatest and is optimal for a magnetic field drug delivery system which uses a superconducting magnet.

rat L6 cells = assay: Rat L6 cell culture in square flask with magnet, number of cells after 48 hours; format: cell-based; details: powder sprinkled on culture medium, L6 cells confluent at 30%, bar magnet
Experimental: The respective metal salen complex powders of the Fe-salen complex, the Mn-salen complex, the Cr-salen complex, and the Co-salen complex obtained with the foregoing method were sprinkled on a culture medium in an amount that where such powder can be visually confirmed to be drawn to the magnet in a state where the rat L6 cells are confluent at 30%, and a photograph of the state of the culture medium after 48 hours was taken.
Subsequently, a photograph was taken from one end to the other end of the bottom face of the square flask after 48 hours, and the results of calculating the number of cells are shown in FIG. 6. […]
Shown is a state where the bar magnet was caused to come in contact with a square flask as the culture medium of the rat L6 cells. Subsequently, a photograph was taken from one end to the other end of the bottom face of the square flask after 48 hours, and the number of cells was calculated. […]
Shown is a state where the bar magnet was caused to come in contact with a square flask as the culture medium of the rat L6 cells. Subsequently, a photograph was taken from one end to the other end of the bottom face of the square flask after 48 hours, and the number of cells was calculated.

| SMILES | magnetic field at which magnetization is greater in comparison to the Fe-salen [1] | magnetic properties from magnetic field-magnetization curve [1] | magnetization compared among Fe-, Mn-, Cr-, Co-salen [1] | number of cells proximal from the magnet versus distal (rat L6 cells) |
| --- | --- | --- | --- | --- |
| [Co+2].[O-]c1ccccc1C=NCCN=Cc1ccccc1[O-] [Co-salen complex] | ≥ 10000 Oe | paramagnetic properties were observed | the greatest | – |
| [Cr+2].[O-]c1ccccc1C=NCCN=Cc1ccccc1[O-] [Cr-salen complex] | – | paramagnetic properties were observed | – | – |
| Oc1ccccc1C=NCCN=Cc1ccccc1O.[Mn] [Mn-salen complex] | ≥ 30000 Oe | paramagnetic properties were observed | the greatest | number of cells is extremely lower than the distal |

Reference: US20120029167A1, “AUTO MAGNETIC METAL SALEN COMPLEX COMPOUND” (Yoshihiro Ishikawa, priority 2008, published 2012)
